Earlier results in patent US20040202705A1 (priority 1999, published 2004).

Conditions: human, in vivo

Nc1c2c(nc3ccccc13)CCCC2 [Tacrine]
Patients with reversible hepatotoxicity: approximately 30%
